The target of assay [1] is T1, human EDG-2 (Homo sapiens, UniProt Q92633).
T1 construct: cDNA of the cloned human EDG-2 was introduced into pEFneo, which is an animal expression vector; expressed in transfected cells; host or cells: HepG2
Kind of assay: Inhibitory activity on LPA-induced elevation of intracellular Ca2+ level. The assay is classed as cell-based. Particulars: 50% inhibition of elevation of intracellular Ca2+ level by LPA, human EDG-2/HepG2 cells, fura-2. An excerpt:
(§1) The human EDG-2 expression plasmid was introduced into HepG2 cells by electroporation. After the introduction, culturing was continued while exchanging selective media every 3 to 4 days, thereby obtaining an expressed colony. Regarding these cells, Ca-influx and cell-proliferation by LPA, level of [^3H] LPA binding and the like were inspected to select a cell line which highly expresses human EDG-2 (human EDG-2/HepG2).
Human EDG-2/HepG2 cells were washed and then suspended in 0.1% BSA (bovine serum albumin)-containing HEPES buffer. A fluorescent indicator, fura-2/AM (Wako Pure Chemical Industries, Ltd.), was added, and the mixture was shaken at room temperature for 45 minutes so that the indicator is included in the cell. Cells were washed again and then suspended in 0.1% BSA-containing HEPES buffer, and intracellular Ca^2+ level was assayed using FDSS2000 (Hamamatsu Photonics). […] Each test compound was added to the cell suspension followed by the addition of LPA, thereby examining the inhibitory activity of the test compound on the function of LPA for elevating the intracellular Ca level. […] The lower the IC50 value, the higher the antagonistic activity on the LPA receptor.

Assay [2] concerns Human EDG-2/HepG2 cells. The assay is described as follows: Inhibitory activity on LPA-accelerated [3H] thymidine incorporation (cell proliferation). The assay is classed as cell-based. Particulars: 50% inhibition of LPA-induced increase of [3H] thymidine incorporation.
From the text: as §1
Human EDG-2/HepG2 cells suspended in 10% bovine serum-containing DMEM (Dulbecco's modified eagle medium) were plated on a 96-well plate and, on the next day, the medium was exchanged with serum-free DMEM. 24 hours later, the medium was exchanged with DMEM containing LPA or DMEM containing no LPA, cells were cultured for further 16 hours, and [^3H] thymidine was then added. After culturing for 8 hours subsequent to the addition of [^3H] thymidine, cells were washed with PBS (phosphate-buffered saline), and the amount of [^3H] thymidine incorporated into the cells were assayed by Betaplate filter counter system (Amersham Pharmacia Biotech). The difference between the amount of [^3H] thymidine incorporated in the LPA-added well and the amount of [^3H] thymidine incorporated in the well containing no LPA represents the amount of [^3H] thymidine incorporation accelerated by LPA. […] The test compounds were added immediately before the LPA addition.
On the technique in general: Uptake of a labelled nucleoside into DNA is a usual measure of proliferation.

T1 sequence (Q92633 whole entry): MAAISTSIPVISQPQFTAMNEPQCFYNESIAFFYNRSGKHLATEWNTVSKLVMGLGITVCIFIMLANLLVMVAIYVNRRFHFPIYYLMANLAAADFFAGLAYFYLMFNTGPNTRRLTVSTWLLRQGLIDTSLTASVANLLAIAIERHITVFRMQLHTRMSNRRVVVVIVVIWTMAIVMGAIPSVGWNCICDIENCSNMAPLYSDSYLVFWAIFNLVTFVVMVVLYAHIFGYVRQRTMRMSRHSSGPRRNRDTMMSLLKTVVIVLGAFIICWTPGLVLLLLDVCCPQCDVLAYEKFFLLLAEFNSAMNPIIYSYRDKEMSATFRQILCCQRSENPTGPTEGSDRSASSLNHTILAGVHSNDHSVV

By IC50 is commonly meant the concentration that inhibits the measured activity by half. A lower IC50 goes with inhibition by little substance. Regarding `Cc1ccsc1-c1onc(C)c1NC(=O)OC(C)c1ccccc1Cl` (stereo not drawn) [Compound 67, 1-(2-Chlorophenyl)ethyl N-[3-methyl-5-(3-methyl-2-thienyl)-4-isoxazolyl]carbamate], the half-maximal inhibitory concentration (IC50) in assay [1] was 3 µM; in assay [2], 1 µM.
Turning to `COC(=O)CSCc1ccc(-c2onc(C)c2NC(=O)OC(C)c2ccccc2Cl)cc1` (stereo not drawn) [Compound 118, Methyl 2-({4-[4-({[1-(2-chlorophenyl)ethoxy]carbonyl}-amino)-3-methyl-5-isoxazolyl]-benzyl}-sulfanyl)acetate], the 50% inhibitory concentration (IC50) in assay [1] lay within 1 to 3 µM; in assay [2], 0.1 to 0.3 µM.
For `CCc1noc(-c2ccc(CSCCC(=O)OC)cc2)c1NC(=O)OC(C)c1ccccc1F` (stereo not drawn) [Compound 165, Methyl 3-({4-[3-ethyl-4-({[1-(2-fluorophenyl)ethoxy]carbonyl}amino)-5-isoxazolyl]-benzyl}sulfanyl)propanoate] the same measures were 3 to 10 µM and 0.1 to 0.3 µM.
For the compound `Cc1noc(-c2ccc(CNCCF)cc2)c1NC(=O)OC(C)c1ccccc1Cl` (stereo not drawn) [Compound 112, 1-(2-Chlorophenyl)ethyl N-[5-(4-{[(2-fluoroethyl)amino]methyl}phenyl)-3-methyl-4-isoxazolyl]carbamate], the IC50 in assay [1] lay within 10 to 30 µM; in assay [2], 0.3 to 1 µM.
For `Cc1noc(-c2ccnc(Cl)c2)c1NC(=O)OC(C)c1ccccc1Cl` (stereo not drawn) [Compound 71, 1-(2-Chlorophenyl)ethyl N-[5-(2-chloro-4-pyridyl)-3-methyl-4-isoxazolyl]carbamate] the same measures were 3 µM and 1 µM.
For `Cc1noc(-c2ccc(CSCCC(=O)O)cc2)c1NC(=O)OC(c1ccccc1)C(F)(F)F` (stereo not drawn) [Compound 163, 3-{[4-(3-Methyl-4-{[(2,2,2-trifluoro-1-phenylethoxy)carbonyl]amino}-5-isoxazolyl)benzyl]-sulfanyl}propanoic acid], in that order: 3 to 10 µM and 0.03 to 0.1 µM.
For `Cc1noc(-c2ccc(CNCc3ccco3)cc2)c1NC(=O)OC(C)c1ccccc1Cl` (stereo not drawn) [Compound 106, 1-(2-Chlorophenyl)ethyl N-[5-(4-{[(2-furylmethyl)amino]methyl}phenyl)-3-methyl-4-isoxazolyl]carbamate], in that order: 3 to 10 µM and 1 to 3 µM.
Turning to `Cc1noc(-c2cccc(CSCCC(=O)O)c2)c1NC(=O)OC(C)c1ccccc1Cl` (stereo not drawn) [Compound 159, 3-({3-[4-({[1-(2-Chlorophenyl)ethoxy]carbonyl}amino)-3-methyl-5-isoxazolyl]benzyl}-sulfanyl)propanoic acid], the IC50 worked out at 3 µM in assay [1] and 0.3 µM in assay [2].
Take `CNC(=O)CSCc1ccc(-c2onc(C)c2NC(=O)OC(C)c2ccccc2Cl)cc1` (stereo not drawn) [Compound 138]: the values for the IC50 in assay [1] and in assay [2] were 3 to 10 µM and 0.1 to 0.3 µM, respectively.
As to `Cc1noc(-c2ccc(CSCC(=O)O)cc2)c1NC(=O)OC(C)c1ccccc1Cl` (stereo not drawn) [Compound 121, 2-({4-[4-({[1-(2-Chlorophenyl)ethoxy]carbonyl}amino)-3-methyl-5-isoxazolyl]benzyl}-sulfanyl)acetic acid], the IC50 in assay [1] was 3 to 10 µM; in assay [2], 0.03 to 0.1 µM.
`CCOC(=O)COCc1ccc(-c2onc(C)c2NC(=O)OC(C)c2ccccc2Cl)cc1` (stereo not drawn) [Compound 168, Ethyl 2-({4-[4-({[1-(2-chlorophenyl)ethoxy]carbonyl}amino)-3-methyl-5-isoxazolyl]-benzyl}oxy)acetate]: the IC50 in assay [1] is 3 to 10 µM; in assay [2] it was 1 µM.
For the compound `Cc1noc(-c2ccncc2)c1NC(=O)OC(C)c1ccccc1Cl` (stereo not drawn) [Compound 62, 1-(2-Chlorophenyl)ethyl N-[3-methyl-5-(4-pyridyl)-4-isoxazolyl]carbamate], the IC50 in assay [1] and in assay [2] was 3 µM throughout.
Regarding `Cc1noc(-c2ccc(CNCc3ccccn3)cc2)c1NC(=O)OC(C)c1ccccc1Cl` (stereo not drawn) [Compound 105, 1-(2-Chlorophenyl)ethyl N-[3-methyl-5-(4-{[(2-pyridylmethyl)amino]methyl}-phenyl)-4-isoxazolyl]carbamate], the IC50 in assay [1] is 10 to 30 µM; in assay [2] it was 1 µM.
For `Cc1noc(-c2ccco2)c1NC(=O)OC(C)c1ccccc1Cl` (stereo not drawn) [Compound 32, 1-(2-Chlorophenyl)ethyl N-[5-(2-furyl)-3-methyl-4-isoxazolyl]carbamate] the same measures were 3 µM and 1 µM.
On to `Cc1noc(-c2ccc(CNCC3CCCO3)cc2)c1NC(=O)OC(C)c1ccccc1Cl` (stereo not drawn) [Compound 104, 1-(2-Chlorophenyl)ethyl N-[3-methyl-5-(4-{[(tetrahydro-2-furanylmethyl)amino]-methyl}phenyl)-4-isoxazolyl]carbamate], for which the IC50 in assay [1] is 10 to 30 µM; in assay [2], 3 µM.
On to `Cc1onc(-c2ccccc2)c1NC(=O)OC1CCc2ccccc21` (stereo not drawn) [Compound 97, 2,3-Dihydro-1H-1-indenyl N-(5-methyl-3-phenyl-4-isoxazolyl)carbamate], for which, in assay [1], the concentration for half-maximal inhibition (IC50) was in the range of 30 to 100 µM.
Same read-out and setting: for `Cc1noc(-c2ccc(CN3CC(C)OC(C)C3)cc2)c1NC(=O)OC(C)c1ccccc1Cl` (stereo not drawn) [Compound 89, 1-(2-Chlorophenyl)ethyl N-(5-[4-[(2,6-dimethylmorpholino)methyl]phenyl]-3-methyl-4-isoxazolyl)carbamate] the value was 10 to 30 µM; for `Cc1noc(-c2ccccc2)c1NC(=O)O[C@H](C)c1ccccc1Cl` [Compound 18, (1R)-1-(2-Chlorophenyl)ethyl N-(3-methyl-5-phenyl-4-isoxazolyl)carbamate], 3 µM.
Still for that read-out and setting: for `Cc1noc(-c2ccc(Cl)nc2)c1NC(=O)OC(C)c1ccccc1Cl` (stereo not drawn) [Compound 63, 1-(2-Chlorophenyl)ethyl N-[5-(6-chloro-3-pyridyl)-3-methyl-4-isoxazolyl]carbamate] the value was 30 µM.
In assay [1], `Cc1ccccc1CCOC(=O)Nc1c(-c2ccccc2)noc1C` [Compound 95, 2-Methylphenethyl N-(5-methyl-3-phenyl-4-isoxazolyl)carbamate] returned an IC50 of 30 to 100 µM.
The same measure, in the same setting: for `Cc1noc(-c2cccc(OC(F)(F)F)c2)c1NC(=O)OC(C)c1ccccc1Cl` (stereo not drawn) [Compound 53, 1-(2-Chlorophenyl)ethyl N-[3-methyl-5-[3-(trifluoromethoxy)phenyl]-4-isoxazolyl]carbamate] the value was 30 µM; for `Cc1ccc(-c2onc(C)c2NC(=O)OC(C)c2ccccc2F)cc1` (stereo not drawn) [Compound 49, 1-(2-Fluorophenyl)ethyl N-[3-methyl-5-(4-methylphenyl)-4-isoxazolyl]carbamate], 10 to 30 µM.
The same measure, in the same setting: the value for `Cc1noc(-c2ccc(OC(F)(F)F)cc2)c1NC(=O)OC(C)c1ccccc1Cl` (stereo not drawn) [Compound 36, 1-(2-Chlorophenyl)ethyl N-[5-[4-(trifluoromethoxy)phenyl]-3-methyl-4-isoxazolyl]carbamate] was 3 to 10 µM.
Still for that read-out and setting: the value for `Cc1noc(-c2ccc(CN3CCOCC3)cc2)c1NC(=O)OC(C)c1ccccc1Cl` (stereo not drawn) [Compound 88, 1-(2-Chlorophenyl)ethyl N-[3-methyl-5-[4-(morpholinomethyl)phenyl]-4-isoxazolyl]carbamate] was 3 to 10 µM.
In assay [1], `Cc1ccc(-c2onc(C)c2NC(=O)OC(C)c2ccccc2Cl)cc1` (stereo not drawn) [Compound 38, 1-(2-Chlorophenyl)ethyl N-[3-methyl-5-(4-methylphenyl)-4-isoxazolyl]carbamate] came in with an IC50 of 10 µM.
In assay [1], `Cc1onc(-c2ccccc2)c1NC(=O)OC(C)c1ccccc1Br` (stereo not drawn) [Compound 23, 1-(2-Bromophenyl)ethyl N-(5-methyl-3-phenyl-4-isoxazolyl)carbamate] yielded an IC50 of 10 µM. That is a double-digit micromolar value.
The same measure, in the same setting: the value for `Cc1noc(-c2cccc(Cl)c2)c1NC(=O)OC(C)c1ccccc1Cl` (stereo not drawn) [Compound 39, 1-(2-Chlorophenyl)ethyl N-[5-(3-chlorophenyl)-3-methyl-4-isoxazolyl]carbamate] was 10 µM.
Compound `COc1ccc(-c2onc(C)c2NC(=O)OC(C)c2ccccc2Cl)cc1` (stereo not drawn) [Compound 50, 1-(2-Chlorophenyl)ethyl N-[5-(4-methoxyphenyl)-3-methyl-4-isoxazolyl]carbamate] returned a half-inhibitory concentration (IC50) in assay [1] of 10 to 30 µM.
Same read-out and setting: for `Cc1noc(-c2ccc(CNCc3ccco3)cc2)c1NC(=O)OC(C)c1ccccc1Cl` (stereo not drawn) [Compound 93, 1-(2-Chlorophenyl)ethyl N-[5-(4-[[(2-furylmethyl)amino]methyl]phenyl)-3-methyl-4-isoxazolyl]carbamate] the value was 3 to 10 µM.
Same read-out and setting: for `Cc1noc(-c2cccc(F)c2)c1NC(=O)OC(C)c1ccccc1Cl` (stereo not drawn) [Compound 30, 1-(2-Chlorophenyl)ethyl N-[5-(3-fluorophenyl)-3-methyl-4-isoxazolyl]carbamate] the value was 3 to 10 µM.
